Two compounds from ChEMBL document CHEMBL3585268, “Treatment of Cancer with NAMPT Inhibitors” (2015) can be followed below.

Common to all, as to format: functional
Test [1] concerns Mus musculus. Nature of the test: In vivo inhibition of NAMPT in human A2780 cells xenografted in Harlan nude mouse assessed as NAD+ level per mg of tissue at 10 mg/kg, po bid measured 7 hrs post second dose by LC-MS analysis (reference value: 55.03 to 56.3 pmol). In general terms: A xenograft is tissue or cells of one species grown in another, often human tumour cells in immunodeficient mice.

Test [2] has as its system Mus musculus. Nature of the test: In vivo inhibition of NAMPT in human A2780 cells xenografted in Harlan nude mouse assessed as NAD+ level per mg of tissue at 5 mg/kg, po bid measured 7 hrs post second dose by LC-MS analysis (reference value: 55.03 to 56.3 pmol).
The test system of test [3] is Mus musculus. Nature of the test: In vivo inhibition of NAMPT in human NCI-H1155 cells xenografted in Harlan nude mouse assessed as NAD+ level per mg of tissue at 5 mg/kg, po bid measured 7 hrs post second dose by LC-MS analysis (reference value: 20.08 to 57.97 pmol).
Test [4] relates to Mus musculus. Nature of the test: In vivo inhibition of NAMPT in human NCI-H1155 cells xenografted in Harlan nude mouse assessed as NAD+ level per mg of tissue at 20 mg/kg, po bid measured 7 hrs post second dose by LC-MS analysis (reference value: 20.08 to 57.97 pmol).
Test [5] has as its system Mus musculus. Nature of the test: In vivo inhibition of NAMPT in human A2780 cells xenografted in Harlan nude mouse assessed as NAD+ level per mg of tissue at 20 mg/kg, po bid measured 7 hrs post second dose by LC-MS analysis (reference value: 55.03 to 56.3 pmol).
Test [6] relates to Mus musculus. Put plainly: In vivo inhibition of NAMPT in human NCI-H1155 cells xenografted in Harlan nude mouse assessed as NAD+ level per mg of tissue at 10 mg/kg, po bid measured 7 hrs post second dose by LC-MS analysis (reference value: 20.08 to 57.97 pmol).
Test [7] has as its system Mus musculus. Nature of the test: In vivo inhibition of NAMPT in human A2780 cells xenografted in Harlan nude mouse assessed as NAD+ level per mg of tissue at 8 mg/kg, po bid measured 7 hrs post second dose by LC-MS analysis (reference value: 55.03 to 56.3 pmol).
The subject of test [8] is Mus musculus. Put plainly: In vivo inhibition of NAMPT in human A2780 cells xenografted in Harlan nude mouse assessed as NAD+ level per mg of tissue at 32 mg/kg, po bid measured 7 hrs post second dose by LC-MS analysis (reference value: 55.03 to 56.3 pmol).
The test system of test [9] is Mus musculus. Nature of the test: In vivo inhibition of NAMPT in human NCI-H1155 cells xenografted in Harlan nude mouse assessed as NAD+ level per mg of tissue at 8 mg/kg, po bid measured 7 hrs post second dose by LC-MS analysis (reference value: 20.08 to 57.97 pmol).
Test [10] has as its system Mus musculus. Put plainly: In vivo inhibition of NAMPT in human NCI-H1155 cells xenografted in Harlan nude mouse assessed as NAD+ level per mg of tissue at 32 mg/kg, po bid measured 7 hrs post second dose by LC-MS analysis (reference value: 20.08 to 57.97 pmol).
The subject of test [11] is Mus musculus. Put plainly: In vivo inhibition of NAMPT in human NCI-H1155 cells xenografted in Harlan nude mouse assessed as NAD+ level per mg of tissue at 16 mg/kg, po bid measured 7 hrs post second dose by LC-MS analysis (reference value: 20.08 to 57.97 pmol).
The subject of test [12] is Mus musculus. Nature of the test: In vivo inhibition of NAMPT in human A2780 cells xenografted in Harlan nude mouse assessed as NAD+ level per mg of tissue at 16 mg/kg, po bid measured 7 hrs post second dose by LC-MS analysis (reference value: 55.03 to 56.3 pmol).

As to `CC(C)(O)CS(=O)(=O)Nc1ccc2c(c1)CCN(C(=O)COc1cccnc1)C2`, the Activity with Mus musculus [1] turned out to be 2.55 pmol; with Mus musculus [2] it was 5.04 pmol; in the test on Mus musculus [3], 7.48 pmol; in the test with Mus musculus [4], 1.82 pmol; in the test on Mus musculus [5], 3.29 pmol; in the test on Mus musculus [6], 3.63 pmol.
With `COCCS(=O)(=O)Nc1ccc2c(c1)CCN(C(=O)COc1cccnc1)C2`, the Activity in the test with Mus musculus [7] amounted to 3.97 pmol; with Mus musculus [8], 6.38 pmol; with Mus musculus [9], 5.19 pmol; with Mus musculus [10], 0.84 pmol; in the test with Mus musculus [11], 1.98 pmol; in the test on Mus musculus [12], 6.52 pmol.
